35 compounds from patent US20070054916A1, “Aryl nitrogen-containing bicyclic compounds and methods of use” (Amgen Inc., priority 2004, published 2007) can be followed below.

Molecules are shown by their SMILES.

One may read the IC50 as the concentration that gives 50% inhibition.

The test system of the first assay is production of TNF by monocytes activated with bacterial lipopolysaccharide (LPS). Briefly: Lipopolysaccharide-activated monocyte TNF production assay. The class given is cell-based. Particulars: Homo sapiens, read-out: IC50 values in the monocyte assay (LPS induced TNF release). Put shortly: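 Adherent human PBMC-derived monocytes (~70%) in DMEM/2% FCS were pre-incubated 60 min with nine two-fold compound dilutions, then stimulated with E. coli K532 LPS (added as 30 ng/ml solution) for 4 h at 37 °C. Supernatant TNF-α was measured by sandwich ELISA. IC50 was taken from a polynomial fit of TNF versus compound concentration.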
For the compound `CCN(CC)CCNC(=O)c1cc(NC(=O)c2ccc(C)c(-c3cnc4nc(NC)ncc4c3)c2)cc(C(F)(F)F)c1` [Example 190, N-(3-(((2-(diethylamino)ethyl)amino)carbonyl)-5-(trifluoromethyl)phenyl)-4-methyl-3-(2-(methylamino)pyrido [2,3-d]pyrimidin-6-yl)benzamide], the IC50 is not above 25 µM.

Regarding `Nc1ncc2cc(-c3cc(C(=O)Nc4cccc(C(F)(F)F)c4F)ccc3Cl)ccc2n1` [Example 140, 3-(2-amino-6-quinazolinyl)-4-chloro-N-(2-fluoro-3-(trifluoromethyl)phenyl)benzamide], the concentration for half-maximal inhibition (IC50) was not above 25 µM. Still for that read-out and setting: then `CC(=O)Nc1ccc(C(F)(F)F)cc1NC(=O)c1ccc(C)c(-c2ccc3nc(N)ncc3c2)c1` [Example 234, N-(2-(acetylamino)-5-(trifluoromethyl)phenyl)-3-(2-amino-6-quinazolinyl)-4-methylbenzamide], with not above 25 µM; and `Cc1cc(NC(=O)c2ccc(C)c(-c3ccc4nc(N)ncc4c3)c2)on1` [Example 323, 3-(2-amino-6-quinazolinyl)-4-methyl-N-(3-methyl-5-isoxazolyl)benzamide], with not above 25 µM. As to `CNc1ncc2cc(-c3cc(C(=O)Nc4cccc(C(F)(F)F)c4C)ccc3C)ccc2n1` [Example 11, 4-methyl-3-(2-(methylamino)-6-quinazolinyl)-N-(2-methyl-3-(trifluoromethyl)phenyl)benzamide], the half-maximal inhibitory concentration (IC50) is not above 25 µM. On the same count and under the same terms, then `CCN(CC)CCNC(=O)c1cc(NC(=O)c2ccc(C)c(-c3ccc4nc(N)ncc4c3)c2)cc(C(F)(F)F)c1` [Example 7], with not above 25 µM; and `Cc1c(NC(=O)c2cc(C(F)(F)F)ccc2F)cccc1-c1ccc2nc(N)ncc2c1` [Example 222, N-(3-(2-amino-6-quinazolinyl)-2-methylphenyl)-2-fluoro-5-(trifluoromethyl) benzamide], with not above 25 µM. Still for that read-out and setting: then `CNc1ncc2cc(-c3cc(C(=O)Nc4ccc(Cl)c(C(F)(F)F)c4C)ccc3C)ccc2n1` [Example 3, N-(4-chloro-2-methyl-3-(trifluoromethyl)phenyl)-4-methyl-3-(2-(methylamino)-quinazolinyl)benzamide], with not above 25 µM; and `O=C(Nc1cccc(C(F)(F)F)c1)c1cccc(-c2ccc3ccnc(O)c3c2)c1` [Example 51, 3-(1-hydroxy-7-isoquinolinyl)-N-(3-(trifluoromethyl)phenyl)benzamide], with not above 25 µM. On to `CNc1ncc2cc(-c3cc(C(=O)Nc4cc(C(F)(F)F)ccc4F)ccc3C)ccc2n1` [Example 1, N-(2-fluoro-5-(trifluoromethyl)phenyl)-4-methyl-3-(2-(methylamino)quinazolin-6-yl)benzamide], for which the IC50 was not above 25 µM. Turning to `Cc1ccc(C(=O)Nc2cc(C(F)(F)F)ccc2N2CCOCC2)cc1-c1ccc2nc(N)ncc2c1` [Example 79, 3-(2-amino-6-quinazolinyl)-4-methyl-N-(2-(4-morpholinyl)-5-(trifluoromethyl)phenyl)benzamide], the IC50 was not above 25 µM.

Turning to `Cc1ccc(C(F)(F)F)cc1NC(=O)c1ccc(C)c(-c2ccc3nc(N)ncc3c2)c1` [Example 365, 3-(2-amino-6-quinazolinyl)-4-methyl-N-(2-methyl-5-(trifluoromethyl)phenyl)benzamide], the half-inhibitory concentration (IC50) was not above 25 µM.

As for `CN(C)CCCN(C)c1ccc(C(F)(F)F)cc1NC(=O)c1cc(-c2ccc3nc(N)ncc3c2)cn(C)c1=O` [Example 164, 5-(2-amino-6-quinazolinyl)-N-(2-((3-(dimethylamino)propyl)(methyl)amino)-5-(trifluoromethyl)phenyl)-1-methyl-2-oxo-1,2-dihydro-3-pyridinecarboxamide], the IC50 was not above 25 µM. Still for that read-out and setting: then `CC(=O)c1sccc1NC(=O)c1ccc(C)c(-c2ccc3nc(N)ncc3c2)c1` [Example 355, N-(2-acetyl-3-thienyl)-3-(2-amino-6-quinazolinyl)-4-methylbenzamide], with not above 25 µM; and `Cc1ccc(C(=O)Nc2cc(C(C)(C)C)ccc2NC(=O)CN2CCOCC2)cc1-c1ccc2nc(N)ncc2c1` [Example 8], with not above 25 µM.

On to `Cc1ccc(C(=O)NCc2ccccn2)cc1-c1ccc2nc(N)ncc2c1` [Example 426, 3-(2-amino-6-quinazolinyl)-4-methyl-N-(2-pyridinylmethyl) benzamide], for which the half-maximal inhibitory concentration (IC50) is not above 25 µM.

On to `CNc1ncc2cc(-c3cc(NC(=O)c4cc(C(F)(F)F)cc(C(F)(F)F)c4)ccc3C)cnc2n1` [Example 200, N-(4-methyl-3-(2-(methylamino)pyrido[2,3-d]pyrimidin-6-yl)phenyl)-3,5-bis(trifluoromethyl)benzamide], for which the IC50 is not above 25 µM. Turning to `CNc1ncc2cc(-c3cc(C(=O)NCc4ccccn4)ccc3C)cnc2n1` [Example 185, 4-methyl-3-(2-(methylamino)pyrido [2,3-d]pyrimidin-6-yl)-N-(2-pyridinylmethyl) benzamide], the IC50 is not above 25 µM. Take `Cc1ccc(C(=O)Nc2cc(C(=O)N3CCN(C)CC3)cc(C(F)(F)F)c2)cc1-c1ccc2nc(N)ncc2c1` [Example 158, 3-(2-amino-6-quinazolinyl)-4-methyl-N-(3-((4-methyl-1-piperazinyl)carbonyl)-5-(trifluoromethyl)phenyl)benzamide]: the IC50 is not above 25 µM. `CCN(CC)CCNC(=O)Nc1ccc(NC(=O)c2ccc(C)c(-c3ccc4nc(N)ncc4c3)c2)cc1C(F)(F)F` [Example 5, 3-(2-amino-6-quinazolinyl)-N-(4-((((2-(diethylamino)ethyl)amino)carbonyl)amino)-3-(trifluoromethyl)phenyl)-4-methylbenzamide]: the IC50 was not above 25 µM. Turning to `CCN(CC)S(=O)(=O)c1ccc(OC)c(NC(=O)c2ccc(C)c(-c3cnc4nc(NC)ncc4c3)c2)c1` [Example 191, N-(5-((diethylamino)sulfonyl)-2-(methyloxy)phenyl)-4-methyl-3-(2-(methylamino)pyrido [2,3-d]pyrimidin-6-yl)benzamide], the IC50 is not above 25 µM.

In the case of `Cc1ccc(C(=O)Nc2cc(C(F)(F)F)ccc2N(C)C)cc1-c1ccc2nc(N)ncc2c1` [Example 81, 3-(2-amino-6-quinazolinyl)-N-(2-(dimethylamino)-5-(trifluoromethyl)phenyl)-4-methylbenzamide], the IC50 is not above 25 µM.

The target of another assay is LCK KD GST (225-509) (Homo sapiens, UniProt P06239). Briefly: LCK Homogenous Time Resolved Flourescent (HTRF) kinase assay. Particulars: average IC50 value in the human HTRF assay for the inhibition of the Lck kinase enzyme. A general note: Time-resolved FRET reads energy transfer from a long-lived donor to a nearby acceptor.
LCK KD GST (225-509), sequence (P06239 225-509): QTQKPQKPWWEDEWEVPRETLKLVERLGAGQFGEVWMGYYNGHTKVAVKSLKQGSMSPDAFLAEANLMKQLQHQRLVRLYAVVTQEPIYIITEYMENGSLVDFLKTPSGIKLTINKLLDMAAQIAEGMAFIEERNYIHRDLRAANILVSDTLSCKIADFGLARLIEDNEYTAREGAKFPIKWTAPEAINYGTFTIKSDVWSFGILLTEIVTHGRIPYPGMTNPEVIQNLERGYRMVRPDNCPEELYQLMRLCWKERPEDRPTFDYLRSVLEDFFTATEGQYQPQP
Compound `Nc1ncnc2ccc(-c3cccc(NC(=O)c4cccc(C(F)(F)F)c4)c3)cc12` [Example 513, N-(3-(4-amino-6-quinazolinyl)phenyl)-3-(trifluoromethyl)benzamide] returned an IC50 not above 1 µM. Same read-out and setting: then `Cc1ccc(C(=O)Nc2cc(C(F)(F)F)ccc2N(C)C)cc1-c1ccc2ncnc(N)c2c1` [Example 385, 3-(4-amino-6-quinazolinyl)-N-(2-(dimethylamino)-5-(trifluoromethyl)phenyl)-4-methylbenzamide], with not above 1 µM; and `CN(C)CCCN(C)c1ccc(C(F)(F)F)cc1NC(=O)c1cc(-c2ccc3nc(N)ncc3c2)cc2c1OCC2` [Example 96, 5-(2-amino-6-quinazolinyl)-N-(2-((3-(dimethylamino)propyl)(methyl)amino)-5-(trifluoromethyl)phenyl)-2,3-dihydro-1-benzofuran-7-carboxamide], with not above 1 µM.

In turn, `Nc1ncc2cc(-c3ccc(C(=O)Nc4cccc(C(F)(F)F)c4)cc3)ccc2n1` [Example 15, 4-(2-amino-6-quinazolinyl)-N-(3-(trifluoromethyl)phenyl)benzamide] returned an IC50 not above 1 µM. As to `Cc1ccc(C(=O)NCCN(C)C)cc1-c1ccc2nc(N)ncc2c1` [Example 134, 3-(2-amino-6-quinazolinyl)-N-(2-(dimethylamino)ethyl)-4-methylbenzamide], the half-inhibitory concentration (IC50) was not above 25 µM. Turning to `Cc1ccc(C(=O)NC2CC2)cc1-c1ccc2nc(NCCN3CCCCC3)ncc2c1` [Example 47, N-cyclopropyl-4-methyl-3-(2-((2-(1-piperidinyl)ethyl)amino)-6-quinazolinyl) benzamide], the half-inhibitory concentration (IC50) was not above 1 µM.

In the case of `Cc1ccc(C(=O)Nc2cc(C(F)(F)F)ccc2N(C)C2CCN(C)C2)cc1-c1ccc2nc(N)ncc2c1` (stereo in doubt) [Example 238, 3-(2-amino-6-quinazolinyl)-4-methyl-N-(2-(methyl((3S)-1-methyl-3-pyrrolidinyl)amino-5-(trifluoromethyl)phenyl)berizamide], the IC50 is not above 1 µM.

`CC(C)c1cccc(C(=O)Nc2cc(-c3ccc4nc(N)ncc4c3)cc(C(F)(F)F)c2)c1` [Example 512, N-(3-(2-amino-6-quinazolinyl)-5-(trifluoromethyl)phenyl)-3-(1-methylethyl)benzamide] returned an IC50 not above 1 µM.

In turn, `Cc1ccc(C(=O)Nc2cc(Cl)ccc2N(C)CCCN(C)C)cc1-c1ccc2nc(N)ncc2c1` [Example 95, 3-(2-amino-6-quinazolinyl)-N-(5-chloro-2-((3-(dimethylamino)propyl)(methyl)amino)phenyl)-4-methylbenzamide] registered an IC50 not above 1 µM. Regarding `COc1c(Br)cc(-c2ccc3nc(N)ncc3c2)cc1C(=O)Nc1cc(C(F)(F)F)ccc1N(C)CCCN(C)C` [Example 103, 5-(2-amino-6-quinazolinyl)-3-bromo-N-(2-((3-(dimethylamino)propyl)(methyl)amino)-5-(trifluoromethyl)phenyl)-2-(methyloxy)benzamide], the IC50 was not above 1 µM. On the same count and under the same terms, under `Cc1ccc(C(=O)NC2CC2)cc1-c1ccc2nc(NCCN(C)C)ncc2c1` [Example 44] stands not above 25 µM. For `CC1(C)CC(=O)Nc2cc(NC(=O)c3cc(-c4ccc5nc(N)ncc5c4)ccc3F)ccc21` [Example 412], the IC50 was not above 1 µM. In turn, `Cc1ccc(C(=O)Nc2cc(C(F)(F)F)ccc2CN2CCN(C)CC2)cc1-c1ccc2ncnc(N)c2c1` [Example 383, 3-(4-amino-6-quinazolinyl)-4-methyl-N-(2-((4-methyl-1-piperazinyl)methyl)-5-(trifluoromethyl)phenyl)benzamide] returned an IC50 not above 1 µM.
